What was measured:
Type in all cases: biochemical
PAK1 = PAK1 (Homo sapiens, UniProt Q13153); assay: In vitro PAK inhibition assay (SelectScreen, Ser/Thr 19 peptide)
In short: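 Ten-point, 3-fold compound series at 1% final DMSO were incubated with enzyme, Ser/Thr 19 peptide and ATP for 60 min at room temperature. Buffer was HEPES pH 7.5 (50 mM) with 10 mM MgCl2, 1 mM EGTA, 0.01% BRIJ-35. A 60 min development step preceded the fluorescence read converted to % phosphorylation.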

PAK2 (PAK65) = PAK2 (PAK65) (Homo sapiens, UniProt Q13177); assay: In vitro PAK inhibition assay (SelectScreen, Ser/Thr 20 peptide)
In short: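 Ten-point threefold compound dilutions (1% DMSO) were incubated with PAK2 (0.29-6 ng) and Ser/Thr 20 substrate (2 μM) for 60 min at room temperature in HEPES pH 7.5 buffer with MgCl2, EGTA and BRIJ-35.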

PAK3 = PAK3 (Homo sapiens, UniProt O75914); assay: as above
In short: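 Fluorescence-based development format: after a 60-min room-temperature kinase reaction and 60-min protease development, percent phosphorylation of Ser/Thr 20 peptide calculated via phosphopeptide controls. Buffer 50 mM HEPES pH 7.5, 10 mM MgCl2, 1 mM EGTA, 0.01% BRIJ-35; compounds at 1% DMSO, 10-point 3-fold dilution series.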

PAK4 = PAK4 (Homo sapiens, UniProt O96013); assay: as above
In short: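 Ten-point, 3-fold compound series (1% DMSO) incubated 1 h at room temperature with PAK4 (0.1-0.75 ng) and 2 μM Ser/Thr 20 peptide, HEPES pH 7.5 buffer with MgCl2, EGTA, BRIJ-35. Development reagent cleaves non-phosphorylated peptide; fluorescence emission ratio gives % phosphorylation, fitted sigmoidally for IC50.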

Chain of PAK3 (O75914 whole entry): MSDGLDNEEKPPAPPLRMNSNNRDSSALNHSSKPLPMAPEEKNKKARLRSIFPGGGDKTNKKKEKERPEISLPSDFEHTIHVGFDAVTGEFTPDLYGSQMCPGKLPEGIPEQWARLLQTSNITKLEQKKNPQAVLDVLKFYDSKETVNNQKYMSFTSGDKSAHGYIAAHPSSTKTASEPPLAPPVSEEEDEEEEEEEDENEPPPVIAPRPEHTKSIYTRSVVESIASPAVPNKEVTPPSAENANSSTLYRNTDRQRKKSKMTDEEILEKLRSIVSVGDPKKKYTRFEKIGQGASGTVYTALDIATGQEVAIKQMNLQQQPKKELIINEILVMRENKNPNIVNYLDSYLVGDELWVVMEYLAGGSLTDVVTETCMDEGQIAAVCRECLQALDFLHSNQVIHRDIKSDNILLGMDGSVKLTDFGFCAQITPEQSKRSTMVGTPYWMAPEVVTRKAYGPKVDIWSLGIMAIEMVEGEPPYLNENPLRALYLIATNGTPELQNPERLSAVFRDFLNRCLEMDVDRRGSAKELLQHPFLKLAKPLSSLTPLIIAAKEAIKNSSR
Chain of PAK1 (Q13153 whole entry): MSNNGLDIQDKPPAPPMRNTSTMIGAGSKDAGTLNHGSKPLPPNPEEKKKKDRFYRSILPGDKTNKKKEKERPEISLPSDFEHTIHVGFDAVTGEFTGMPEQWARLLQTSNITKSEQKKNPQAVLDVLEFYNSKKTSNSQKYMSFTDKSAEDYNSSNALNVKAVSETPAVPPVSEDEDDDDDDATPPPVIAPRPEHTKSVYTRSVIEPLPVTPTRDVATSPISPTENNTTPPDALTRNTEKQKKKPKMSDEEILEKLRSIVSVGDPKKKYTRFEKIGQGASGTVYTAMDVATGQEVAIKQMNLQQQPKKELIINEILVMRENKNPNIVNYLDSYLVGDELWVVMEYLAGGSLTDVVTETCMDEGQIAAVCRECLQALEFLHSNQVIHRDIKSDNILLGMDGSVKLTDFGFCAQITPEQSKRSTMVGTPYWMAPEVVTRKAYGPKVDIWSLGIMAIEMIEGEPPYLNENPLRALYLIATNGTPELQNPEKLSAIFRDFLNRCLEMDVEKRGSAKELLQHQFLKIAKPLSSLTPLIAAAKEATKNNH
Chain of PAK4 (O96013 whole entry): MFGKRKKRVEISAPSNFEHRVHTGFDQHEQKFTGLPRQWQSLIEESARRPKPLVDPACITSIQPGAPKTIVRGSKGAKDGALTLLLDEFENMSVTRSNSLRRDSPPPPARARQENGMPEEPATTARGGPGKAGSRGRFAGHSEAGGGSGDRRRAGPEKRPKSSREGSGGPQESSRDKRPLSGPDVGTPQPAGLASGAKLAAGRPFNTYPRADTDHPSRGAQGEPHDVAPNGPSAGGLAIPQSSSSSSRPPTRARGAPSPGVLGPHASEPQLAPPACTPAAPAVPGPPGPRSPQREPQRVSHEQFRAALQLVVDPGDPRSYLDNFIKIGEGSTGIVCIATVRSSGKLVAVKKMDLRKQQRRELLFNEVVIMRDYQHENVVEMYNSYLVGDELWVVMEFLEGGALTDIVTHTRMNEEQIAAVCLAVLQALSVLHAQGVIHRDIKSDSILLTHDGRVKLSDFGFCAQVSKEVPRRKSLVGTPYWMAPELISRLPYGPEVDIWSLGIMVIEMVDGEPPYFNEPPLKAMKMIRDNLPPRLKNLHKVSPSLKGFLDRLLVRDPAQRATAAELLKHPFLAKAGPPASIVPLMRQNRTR
Chain of PAK2 (PAK65) (Q13177 whole entry): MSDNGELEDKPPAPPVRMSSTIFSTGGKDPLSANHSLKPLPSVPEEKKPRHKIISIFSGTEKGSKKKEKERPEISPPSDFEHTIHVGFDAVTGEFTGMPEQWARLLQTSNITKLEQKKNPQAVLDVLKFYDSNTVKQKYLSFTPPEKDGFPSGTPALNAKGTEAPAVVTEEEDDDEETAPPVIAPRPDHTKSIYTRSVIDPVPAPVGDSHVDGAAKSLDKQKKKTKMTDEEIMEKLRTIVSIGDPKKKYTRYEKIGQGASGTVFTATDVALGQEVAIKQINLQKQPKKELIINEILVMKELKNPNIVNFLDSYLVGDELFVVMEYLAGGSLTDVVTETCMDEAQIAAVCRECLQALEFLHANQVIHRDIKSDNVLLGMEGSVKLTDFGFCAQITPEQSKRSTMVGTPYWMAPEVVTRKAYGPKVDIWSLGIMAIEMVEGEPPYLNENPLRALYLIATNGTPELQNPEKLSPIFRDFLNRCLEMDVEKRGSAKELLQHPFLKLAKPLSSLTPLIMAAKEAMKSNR

| Structure (SMILES) | IC50 (PAK1) | IC50 (PAK2 (PAK65)) | IC50 (PAK3) | IC50 (PAK4) |
| --- | --- | --- | --- | --- |
| CCn1c(=O)c(-c2ccc(-c3ccsc3)cc2)cc2cnc(Nc3ccc(N4CCN(C)CC4)cc3)nc21 | 50 to 500 nM | 500 to 5000 nM | 50 to 500 nM | ≥ 5000 nM |
| CCn1c(=O)c(-c2ccc(-c3ccoc3)cc2)cc2cnc(Nc3ccc(N4CCN(C)CC4)cc3)nc21 | 50 to 500 nM | > 5000 nM | > 5000 nM | ≥ 5000 nM |
| CN1CCC(c2ccc(Nc3ncc4cc(-c5cc(-c6ccncc6)ccc5Cl)c(=O)n(C)c4n3)cc2)CC1 | 500 to 5000 nM | > 5000 nM | > 5000 nM | ≥ 5000 nM |
| CC(=O)N(C)c1ncccc1-c1ccc(Cl)c(-c2cc3cnc(Nc4ccc(C5CCN(C)CC5)cc4)nc3n(C)c2=O)c1 | > 5000 nM | > 5000 nM | 500 to 5000 nM | ≥ 5000 nM |
| Cc1cnc(-c2ccc(Cl)c(-c3cc4cnc(Nc5ccc(C6CCN(C)CC6)cc5)nc4n(C)c3=O)c2)s1 | 50 to 500 nM | > 5000 nM | 50 to 500 nM | ≥ 5000 nM |
| CN1CCC(c2ccc(Nc3ncc4cc(-c5cc(-c6nccc(N(C)C)n6)ccc5Cl)c(=O)n(C)c4n3)cc2)CC1 | 500 to 5000 nM | > 5000 nM | 50 to 500 nM | 500 to 5000 nM |
| CC(=O)N(C)c1cc(-c2cc3cnc(Nc4ccc(CCN(C)C)cc4)nc3n(C)c2=O)c(Cl)cc1-c1cccnc1 | 50 to 500 nM | 50 to 500 nM | 50 to 500 nM | ≥ 5000 nM |
| CC(=O)Nc1ccnc(-c2ccc(Cl)c(-c3cc4cnc(Nc5ccc(C6CCN(C)CC6)cc5)nc4n(C)c3=O)c2)n1 | > 5000 nM | > 5000 nM | > 5000 nM | ≥ 5000 nM |

The remaining lines, values ahead:

| IC50 (PAK1) | IC50 (PAK2 (PAK65)) | IC50 (PAK3) | IC50 (PAK4) | Structure (SMILES) |
| --- | --- | --- | --- | --- |
| 50 to 500 nM | 50 to 500 nM | 50 to 500 nM | ≥ 5000 nM | CC(=O)Nc1cc(-c2cc3cnc(Nc4ccc(CCN(C)C)cc4)nc3n(C)c2=O)c(Cl)cc1-c1cccnc1 |
| < 50 nM | < 50 nM | 50 to 500 nM | 500 to 5000 nM | Cc1cnc(-c2ccc(-c3cc4cnc(Nc5ccc(C6CCN(C)CC6)cc5)nc4n(C)c3=O)c(C)c2)s1 |
| < 50 nM | < 50 nM | < 50 nM | ≥ 5000 nM | Cc1nc(-c2ccc(-c3cc4cnc(Nc5ccc(C6CCN(C)CC6)cc5)nc4n(C)c3=O)c(C)c2)no1 |
| < 50 nM | < 50 nM | < 50 nM | ≥ 5000 nM | CCn1c(=O)c(-c2ccc(-c3nccnc3C)cc2C)cc2cnc(Nc3ccc(C4CCN(C)CC4)cc3)nc21 |
| 50 to 500 nM | 50 to 500 nM | 500 to 5000 nM | ≥ 5000 nM | CC(=O)Nc1ncccc1-c1ccc(Cl)c(-c2cc3cnc(Nc4ccc(C5CCN(C)CC5)cc4)nc3n(C)c2=O)c1 |
| < 50 nM | < 50 nM | 50 to 500 nM | 500 to 5000 nM | CCn1c(=O)c(-c2ccc(-c3ncc(C)s3)cc2C)cc2cnc(Nc3ccc(C4CCN(C)CC4)cc3)nc21 |
| 500 to 5000 nM | 500 to 5000 nM | > 5000 nM | ≥ 5000 nM | CN1CCC(c2ccc(Nc3ncc4cc(-c5cc(-c6cccnc6N(C)C)ccc5Cl)c(=O)n(C)c4n3)cc2)CC1 |
| 50 to 500 nM | 500 to 5000 nM | 50 to 500 nM | ≥ 5000 nM | CN1CCC(c2ccc(Nc3ncc4cc(-c5cc(-c6cnccn6)ccc5Cl)c(=O)n(C)c4n3)cc2)CC1 |
| 50 to 500 nM | 500 to 5000 nM | 50 to 500 nM | ≥ 5000 nM | Cc1ccc(-c2cccnc2)cc1-c1cc2cnc(Nc3ccc(C4CCN(C)CC4)cc3)nc2n(C)c1=O |
| 500 to 5000 nM | 500 to 5000 nM | 50 to 500 nM | ≥ 5000 nM | Cc1nc(-c2ccc(Cl)c(-c3cc4cnc(Nc5ccc(C6CCN(C)CC6)cc5)nc4n(C)c3=O)c2)no1 |
| 50 to 500 nM | 500 to 5000 nM | 50 to 500 nM | ≥ 5000 nM | CN1CCC(c2ccc(Nc3ncc4cc(-c5cc(-c6ccccn6)ccc5Cl)c(=O)n(C)c4n3)cc2)CC1 |
| > 5000 nM | > 5000 nM | > 5000 nM | 500 to 5000 nM | CC(=O)Nc1ccc(-c2ccc(Cl)c(-c3cc4cnc(Nc5ccc(C6CCN(C)CC6)cc5)nc4n(C)c3=O)c2)cn1 |

— patent US20140163026A1, “8-ETHYL-6-(ARYL)PYRIDO[2,3-D]PYRIMIDIN-7(8H)-ONES FOR THE TREATMENT OF NERVOUS SYSTEM DISORDERS AND CANCER” (Afraxis Holdings, Inc., priority 2011, published 2014)
